# Measurements reported in US10011615B2, “Heterobicyclo-substituted [1,2,4]triazolo[1,5-c]quinazolin-5-amine compounds with A2A anatagonist properties” (Merck Sharp & Dohme Corp., priority 2012, dated 2018).
# pEC50: −log10 of the molar value.
# Molecular target: T1, human A2a receptor (Homo sapiens, UniProt P29274)
# T1 construct: purchased Perkin-Elmer RBHA2AM400UA; host or cells: HEK293 cell membranes
# Experiment: A2a receptor competition binding assay using Scintillation Proximity technology
# Details: membranes from HEK293 cells expressing human A2a receptor; 0.5 nM tritiated radioligand; SPA beads; 1 h room temperature
# Experimental: Binding affinities of compounds of the invention for the human A2a receptor were determined in a competition binding assay using Scintillation Proximity technology. Thus, 0.3 μg of membranes from HEK293 cells expressing the human A2a receptor were incubated with a compound of the invention at concentrations ranging from 3000 nM to 0.15 nM in a reaction mixture containing also 0.5 nM of a tritiated form of 5-amino-7-[2-phenethyl]-2-(furan-2-yl)-7H-pyrazolo[4,3-e][1,2,4]triazolo[1,5-c]pyrimidine (the tritiated compound) and 100 μg of wheat germ agglutin-coated yttrium silicate SPA beads for one hour at room temperature with agitation. The beads were then allowed to settle to the bottom of the wells for 1 hr, after which the membrane-associated radioactivity was determined by scintillation counting in a TopCount microplate reader. Ki values were determined using the Cheng-Prusoff equation.
# Summary of Materials and Methods Used in A2a Activity Determination:
# HEK293 cells expressing the human, rat, dog or monkey adenosine 2a receptor (Purchased from Perkin-Elmer # RBHA2AM400UA).
# The Tritiated compound was prepared in-house by MRL Radiochemistry according to published methods.
# Wheat germ agglutinin-coated yttrium silicate SPA beads (GE Healthcare#RPNQ0023). Dilute to 25 mg/ml in assay buffer.
# Assay Buffer was prepared in house: Dulbecco's calcium and magnesium free phosphate buffered saline+10 mM MgCl2
# Adenosine deaminase from calf intestine, 10 mg/2 ml (Roche) 10 102 105 001).
# A2a antagonist standard (9-chloro-1-(2-furanyl)-[1,2,4]triazolo1,5-c]quinazolin-5-amine from Tocris Bioscience)
# Make eight 1:3 serial dilutions in 100% DMSO from a 3 mM compound stock
# Transfer 50 nl of compound into a 384-well OptiPlate (Perkin Elmer).
# Typically, final concentrations of compound used in the assay ranged from 3000 nM to 0.152 nM.
# Dilute a solution of the Tritiated compound to 1.25 nM in assay buffer. This is a 2.5× solution. The final concentration in the assay is 0.5 nM. Calculate the concentration by counting two 5 μl aliquots.
# Use 0.25 ug of membrane/well. Dilute membranes to 9.7 μg/ml in assay buffer. Treat with 20 ug/ml adenosine deaminase (ADA) for 15 minutes at room temperature to degrade endogenous adenosine.
# Use 100 μg/well wheat germ agglutinin-coated yttrium silicate SPA beads.
# Mix ADA-treated membranes and SPA beads together for 30 min prior to assay.
# To the Perkin-Elmer Optiplate-384 containing the compound titration add 20 μl of 2.5× solution of the Tritiated compound and 30 μl of the membrane-bead mixture. Incubate for one hour at room temperature with agitation.
# Include total binding (assay buffer+1% DMSO) and non-specific binding (CGS15943, 1 μM) wells.
# Allow the beads to settle for one hour.
# A curve fitting program (i.e., Prism, Activity Base, Chemcart) is used to determine the EC50. The Ki value is calculated using the Cheng-Prusoff equation: K i=EC50/(1+(radioligand concentration/Kd)).
# T1 sequence (P29274 whole entry): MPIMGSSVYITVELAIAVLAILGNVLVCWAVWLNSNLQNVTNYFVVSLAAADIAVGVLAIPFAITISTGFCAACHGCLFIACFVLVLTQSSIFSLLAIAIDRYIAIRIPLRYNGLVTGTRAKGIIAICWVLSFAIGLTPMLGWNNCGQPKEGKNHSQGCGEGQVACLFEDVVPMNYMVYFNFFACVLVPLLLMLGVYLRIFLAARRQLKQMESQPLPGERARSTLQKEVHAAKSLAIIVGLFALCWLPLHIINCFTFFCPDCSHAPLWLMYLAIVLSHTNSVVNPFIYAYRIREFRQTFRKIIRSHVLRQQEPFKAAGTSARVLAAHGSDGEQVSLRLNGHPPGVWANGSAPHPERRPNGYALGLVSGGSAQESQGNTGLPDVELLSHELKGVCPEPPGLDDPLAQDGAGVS
row,SMILES,pEC50
1,"COc1cccc2c1nc(N)n1nc(CCN3CCc4nc(C5CC5)sc4C3)nc21 [Ex-30, 2-(2-(2-cyclopropyl-6,7-dihydrothiazolo[5,4-c]pyridin-5(4H)-yl)ethyl)-7-methoxy-[1,2,4]triazolo[1,5-c]quinazolin-5-amine]",8.96
2,"COc1cccc2c1nc(N)n1nc(CCN3CCc4nc(C5CC5)oc4C3)nc21 [Ex-31, 2-(2-(2-cyclopropyl-6,7-dihydrooxazolo[5,4-c]pyridin-5(4H)-yl)ethyl)-7-methoxy[1,2,4]triazolo[1,5-c]quinazolin-5-amine]",8.89
3,"COc1cccc2c1nc(N)n1nc(CCN3CCc4c(c(C(F)(F)F)nn4C)C3)nc21 [Ex-32, 7-methoxy-2-(2-(1-methyl-3-(trifluoromethyl)-677-dihydro-1H-pyrazolo[4,3-c]pyridin-5(4H)-yl)ethyl)-[1,2,4]triazolo[1,5-c]quinazolin-5-amine]",8.85
4,"COc1cccc2c1nc(N)n1nc(CCN3CCn4nccc43)nc21 [Ex-33, 2-(2-(2,3-dihydro-1H-imidazo[1,2-b]pyrazol-1-yl)ethyl)-7-methoxy-[1,2,4]triazolo[1,5-c]quinazolin-5-amine]",8.38
5,COc1cccc2c1nc(N)n1nc(CCN3Cc4nc(-c5ccccc5)[nH]c4C3)nc21 [Ex-34],8.77
6,"COc1cccc2c1nc(N)n1nc(CCN3CCc4oncc4C3)nc21 [Ex-35, 2-(2-(6,7-dihydroisoxazolo[4,5-c]pyridin-5(4H)-yl)ethyl)-7-methoxy-[1,2,4]triazolo[1,5-c]quinazolin-5-amine]",8.64
7,"COc1cccc2c1nc(N)n1nc(CCN3CCc4[nH]ncc4C3)nc21 [Ex-36, 2-(2-(6,7-dihydro-1H-pyrazolo[4,3-c]pyridin-5(4H)-yl)ethyl)-7-methoxy-[1,2,4]triazolo[1,5-c]quinazolin-5-amine]",8.17
8,"COc1cccc2c1nc(N)n1nc(CCN3CCc4[nH]nc(C)c4C3)nc21 [Ex-37, 7-methoxy-2-(2-(3-methyl-6,7-dihydro-1H-pyrazolo[4,3-c]pyridin-5(4H)-yl)ethyl)-[1,2,4]triazolo[1,5-c]quinazolin-5-amine]",8.19
9,"COc1cccc2c1nc(N)n1nc(CCN3CCc4[nH]nc(C(F)(F)F)c4C3)nc21 [Ex-38, 7-methoxy-2-(2-(3-(trifluoromethyl)-6,7-dihydro-1H-pyrazolo[4,3-c]pyridin-5(4H)-yl)ethyl)-[1,2,4]triazolo[1,5-c]quinazolin-5-amine]",8.70
10,COc1cccc2c1nc(N)n1nc(CCN3CCc4sccc4C3)nc21 [Ex-39],8.74
11,"COc1cccc2c1nc(N)n1nc(CCN3CCc4c(C5CC5)n[nH]c4C3)nc21 [Ex-40, 2-(2-(3-cyclopropyl-4,5-dihydro-1H-pyrazolo[3,4-c]pyridin-6(7H)-yl)ethyl)-7-methoxy-[1,2,4]triazolo[1,5-c]quinazolin-5-amine]",8.96
12,"COc1cccc2c1nc(N)n1nc(CCN3CCn4nc(C)cc4C3)nc21 [Ex-41, 7-methoxy-2-(2-(2-methyl-6,7-dihydropyrazolo[1,5-a]pyrazin-5(4H)-yl)ethyl)-[1,2,4]triazolo[1,5-c]quinazolin-5-amine]",8.59
13,"COc1cccc2c1nc(N)n1nc(CCN3CCc4c(C(F)(F)F)n[nH]c4C3)nc21 [Ex-42, 7-methoxy-2-(2-(3-(trifluoromethyl)-4,5-dihydro-1H-pyrazolo[3,4-c]pyridin-6(7H)-yl)ethyl)-[1,2,4]triazolo[1,5-c]quinazolin-5-amine]",8.85
14,"COc1cccc2c1nc(N)n1nc(CCN3CCCc4c3c(C(F)(F)F)nn4C)nc21 [Ex-43, 7-methoxy-2-(2-(1-methyl-3-(trifluoromethyl)-6,7-dihydro-1H-pyrazolo[4,3-b]pyridin-4(5H)-yl)ethyl)-[1,2,4]triazolo[1,5-c]quinazolin-5-amine]",8.08
15,"COc1cccc2c1nc(N)n1nc(CCN3CCc4cc(F)ccc4C3)nc21 [Ex-44, 2-(2-(6-fluoro-3,4-dihydroisoquinolin-2(1H)-yl)ethyl)-7-methoxy-[1,2,4]triazolo[1,5-c]quinazolin-5-amine]",8.38
16,"COc1cccc2c1nc(N)n1nc(CCN3CCc4cccnc4C3)nc21 [Ex-45, 2-(2-(5,6-dihydro-1,7-naphthyridin-7(8H)-yl)ethyl)-7-methoxy-[1,2,4]triazolo[1,5-c]quinazolin-5-amine]",8.37
17,"COc1cccc2c1nc(N)n1nc(CCN3Cc4ccc(C(F)(F)F)cc4C3)nc21 [Ex-46, 7-methoxy-2-(2-(5-(trifluoromethyl)isoindolin-2-yl)ethyl)-[1,2,4]triazolo[1,5-c]quinazolin-5-amine]",7.74
18,"COc1cccc2c1nc(N)n1nc(CCN3Cc4ccc(F)cc4C3)nc21 [Ex-48, 2-(2-(5-fluoroisoindolin-2-yl)ethyl)-7-methoxy-[1,2,4]triazolo[1,5-c]quinazolin-5-amine]",8.34
19,"COc1cccc2c1nc(N)n1nc(CCN3Cc4cccnc4C3)nc21 [Ex-49, 2-(2-(5H-pyrrolo[3,4-b]pyridin-6(7H)-yl)ethyl)-7-methoxy-[1,2,4]triazolo[1,5-c]quinazolin-5-amine]",8.27
20,"COc1cccc2c1nc(N)n1nc(CCN3Cc4[nH]nc(-c5ccccc5)c4C3)nc21 [Ex-50, 7-methoxy-2-(2-(3-phenylpyrrolo[3,4-c]pyrazol-5(1H,4H,6H)-yl)ethyl)-[1,2,4]triazolo[1,5-c]quinazolin-5-amine]",8.82
21,"COc1cccc2c1nc(N)n1nc(CCN3Cc4cn[nH]c4C3)nc21 [Ex-51, 7-methoxy-2-(2-(pyrrolo[3,4-c]pyrazol-5(1H,4H,6H)--yl)ethyl)-[1,2,4]triazolo[1,5-c]quinazolin-5-amine]",8.54
22,"COc1cccc2c1nc(N)n1nc(CCN3CCCc4[nH]nc(C5CC5)c43)nc21 [Ex-52, 2-(2-(3-cyc1opropyl-6,7-dihydro-1H-pyrazolo[4,3-b]pyridin-4(5H)-yl)ethyl)-7-methoxy[1,2,4]triazolo[1,5-c]quinazolin-5-amine]",8.06
23,"COc1cccc2c1nc(N)n1nc(CCN3CCc4cncnc4C3)nc21 [Ex-53, 2-(2-(5,6-dihydropyrido[3,4-d]pyrimidin-7(8H)-yl)ethyl)-7-methoxy-[1,2,4]triazolo[1,5-c]quinazolin-5-amine]",8.62
24,"COc1cccc2c1nc(N)n1nc(CCN3CCc4ncncc4C3)nc21 [Ex-54, 2-(2-(7,8-dihydropyrido[4,3-d]pyrimidin-6(5H)-yl)ethyl)-7-methoxy-[1,2,4]triazolo[1,5-c]quinazolin-5-amine]",8.40
25,"COc1cccc2c1nc(N)n1nc(CCN3CCc4nccnc4C3)nc21 [Ex-55, 2-(2-(7,8-dihydropyrido[4,3-b]pyrazin-6(5H)-yl)ethyl)-7-methoxy-[1,2,4]triazolo[1,5-c]quinazolin-5-amine]",8.74
26,"COc1cccc2c1nc(N)n1nc(CCN3CCc4ncsc4C3)nc21 [Ex-56, 2-(2-(6,7-dihydrothiazolo[5,4-c]pyridin-5(4H)-yl)ethyl)-7-methoxy-[1,2,4]triazolo[1,5-c]quinazolin-5-amine]",8.47
27,"COc1cccc2c1nc(N)n1nc(CCN3CCc4scnc4C3)nc21 [Ex-57, 2-(2-(6,7-dihydrothiazolo[4,5-c]pyridin-5(4H)-yl)ethyl)-7-methoxy-[1,2,4]triazolo[1,5-c]quinazolin-5-amine]",8.77
